Experimental findings from US20230399622A1, “THERAPY FOR DEGENERATIVE DISEASE AND TISSUE DAMAGE” (FUNDACIÓ CENTRE DE REGULACIÓ GENÒMICA, priority 2020, published 2023) are described below.

Experiment [1] deals with MSCs. Briefly: Transwell chemotactic assay of MSCs with chemokine receptor antagonists, media conditioned by NMDA-damaged retina. The experiment is classed as cell-based, mouse. The settings on record: towards media conditioned by NMDA-damaged (24 hpi) retina; vs vehicle DMSO; working concentrations of Table 2. As for the experimental part: (§1) Chemotactic assays were performed using transwell inserts (pore size, 8 μm, BD Biosciences—353182) and 12-well culture plates. To test migration towards defined chemokine gradients, lower chambers were loaded with 1.2 ml of SF DMEM/F-12-GlutaMAX medium with either mCcl5, mCxcl1, mCxcl10, mCxcl16 or a combination of Ccl5 and mCxcl16 (all 50 ng/ml, Peprotech). For tests of NMDA-damage, mice were sacrificed 24 hpi; rd10 mice were sacrificed at P18. Human retina were dissected and cultured for an initial 12 hours in Neurobasal A medium, as previously described. Afterwards, both mouse and human retina were cultured for 24 hours in SF DMEM/F-12-GlutaMAX and SF Neurobasal A (with or without 1 mM NMDA) respectively. 1.2 ml of the resulting conditioned medium were loaded in the lower chambers of the transwell. The upper chamber was loaded with 2×10^5 MSCs in SF medium. The medium used to resuspend MSCs was matched to the medium in the bottom chamber: either DMEM/F-12-GlutaMAX (to test migration towards medium conditioned by mouse retina) or Neurobasal A (to test migration towards medium conditioned by human retina). […]
(§2) Transwell plates were incubated for 1.5 hours at 37° C. […] For each insert, seven fields were imaged and analysed. Cells were automatically counted using a custom-made macro for the ImageJ software (US National Institutes of Health, Bethesda, Md., USA; http://rsb.info.nih.gov/ij/).

Experiment [2] relates to MSCs. Briefly: Transwell chemotactic assay of MSCs with chemokine receptor antagonists, media conditioned by rd10 retina. It is filed as cell-based, mouse. The settings on record: towards media conditioned by rd10 (P18) retina; vs vehicle DMSO; working concentrations of Table 2. The procedure:
as §1, §2

For the compound `NS(=O)(=O)c1c(Cl)ccc(NC(=O)Nc2cccc(Cl)c2Cl)c1O` [Cxcr2 inhibitor, SB 332235], the “migration of MSCs in the presence of receptor inhibitors” value in experiment [1] and in experiment [2] was “not affected” throughout.

For `COc1cc(C(=O)NC2C[C@H]3CCC[C@@H](C2)N3CC(=O)Nc2ccccc2Cl)cc(OC)c1OC` (stereo partly shown) [Cxcr6 inhibitor, ML 339], the “migration of MSCs in the presence of receptor inhibitors” value in experiment [1] and in experiment [2] was “significantly reduced” each time.
